Data reported in patent US7713966B2, “Heterobicyclic metalloprotease inhibitors” (Alantos Pharmaceuticals Holding, Inc., priority 2006, dated 2010).

Tests used:
[1] = target: T1, catalytic domain of MMP-13 enzyme (Homo sapiens, UniProt P45452); experiment: Assay for determining MMP-13 inhibition (fluorescent substrate); assay type: biochemical; details: read-out: MMP-13 Activity (IC50 MMP-13), Group
T1 construct: catalytic domain of MMP-13 enzyme (produced by Alantos or commercially available from Invitek (Berlin), Cat. # 30100812); purchased Invitek (Berlin) 30100812
Protocol: The typical assay for MMP-13 activity is carried out in assay buffer comprised of 50 mM Tris, pH 7.5, 150 mM NaCl, 5 mM CaCl2 and 0.05% Brij-35. Different concentrations of tested compounds are prepared in assay buffer in 50 μL aliquots. 10 μL of a 50 nM stock solution of catalytic domain of MMP-13 enzyme (produced by Alantos or commercially available from Invitek (Berlin), Cat. # 30100812) is added to the compound solution. The mixture of enzyme and compound in assay buffer is thoroughly mixed and incubated for 10 min at room temperature. Upon the completion of incubation, the assay is started by addition of 40 μl of a 12.5 μM stock solution of MMP-13 fluorescent substrate (Calbiochem, Cat. No. 444235). The time-dependent increase in fluorescence is measured at the 320 nm excitation and 390 nm emission by automatic plate multireader. The IC50 values are calculated from the initial reaction rates.

activated MMP-8 enzyme = target: T2, activated MMP-8 enzyme (Homo sapiens, UniProt P22894); experiment: Assay for determining MMP-8 inhibition (OmniMMP fluorescent substrate); assay type: biochemical; details: read-out: MMP-8 Activity (IC50 MMP-8), Group
T2 construct: purchased Calbiochem 444229
T2 sequence (P22894 101-467): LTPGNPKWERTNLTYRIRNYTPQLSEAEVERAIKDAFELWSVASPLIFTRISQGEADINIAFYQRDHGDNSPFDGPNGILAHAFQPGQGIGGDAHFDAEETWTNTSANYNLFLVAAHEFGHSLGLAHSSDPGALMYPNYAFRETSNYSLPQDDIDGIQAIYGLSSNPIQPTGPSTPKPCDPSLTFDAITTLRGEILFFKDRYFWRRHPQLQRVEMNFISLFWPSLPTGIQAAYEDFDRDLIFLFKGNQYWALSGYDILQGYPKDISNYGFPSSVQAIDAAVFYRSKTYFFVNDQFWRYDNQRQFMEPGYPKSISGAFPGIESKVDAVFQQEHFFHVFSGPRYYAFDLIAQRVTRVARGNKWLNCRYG
Protocol: The typical assay for MMP-8 activity is carried out in assay buffer comprised of 50 mM Tris, pH 7.5, 150 mM NaCl, 5 mM CaCl2 and 0.05% Brij-35. Different concentrations of tested compounds are prepared in assay buffer in 50 μL aliquots. 10 μL of a 50 nM stock solution of activated MMP-8 enzyme (Calbiochem, Cat. No. 444229) is added to the compound solution. The mixture of enzyme and compound in assay buffer is thoroughly mixed and incubated for 10 min at 37° C. Upon the completion of incubation, the assay is started by addition of 40 μL of a 10 μM stock solution of OmniMMP fluorescent substrate (Biomol, Cat. No. P-126). The time-dependent increase in fluorescence is measured at the 320 nm excitation and 390 nm emission by an automatic plate multireader at 37° C. The IC50 values are calculated from the initial reaction rates.

Row | SMILES | IC50 [1] | IC50 (activated MMP-8 enzyme)
1 | O=C(NCc1ccc2c(c1)OC(F)(F)O2)c1nc2ccccc2c(=O)[nH]1 [2/6] | 0.1 to 20 µM | 0.25 to 20 µM
2 | O=C(NCc1ccc2c(c1)CCO2)c1nc2ccccc2c(=O)[nH]1 [2/7] | < 0.1 µM | 0.25 to 20 µM
3 | Cc1cccc2nc(C(=O)NCc3ccc(F)c(CNc4c(N)c(=O)c4=O)c3)[nH]c(=O)c12 [2/17] |  | 0.25 to 20 µM
4 | CCOC(=O)c1c(C)sc2nc(C(=O)NCc3ccc4c(c3)NC(=O)CO4)[nH]c(=O)c12 [2/22] | < 0.1 µM | 0.25 to 20 µM
5 | O=C1COc2cc(CNC(=O)c3nc4ccc(Cl)cc4c(=O)[nH]3)ccc2N1 [2/27] | 0.1 to 20 µM | 0.25 to 20 µM
6 | CCOC(=O)c1sc2nc(C(=O)NCc3ccc4c(c3)NC(=O)CO4)[nH]c(=O)c2c1C [2/28] | < 0.1 µM | 0.25 to 20 µM
7 | O=C1COc2ccc(CNC(=O)c3nc4cc(C(F)(F)F)ccc4c(=O)[nH]3)cc2N1 [2/43] | 0.1 to 20 µM | < 0.25 µM
8 | Cn1c(C(=O)NCc2ccc3c(c2)NC(=O)CO3)nc2ccccc2c1=O [2/50] | 0.1 to 20 µM | 
9 | Cc1c(C(=O)Nc2ccccc2)sc2nc(C(=O)NCc3ccc4c(c3)NC(=O)CO4)[nH]c(=O)c12 [2/62] | < 0.1 µM | 0.25 to 20 µM
10 | COc1cc2nc(C(=O)NCc3ccc4c(c3)NC(=O)CO4)[nH]c(=O)c2cc1OC [2/65] | 0.1 to 20 µM | 
11 | C=Cc1ccc2nc(C(=O)NCc3ccc4c(c3)NC(=O)CO4)[nH]c(=O)c2c1 [2/69] | < 0.1 µM | < 0.25 µM
12 | CCc1ccc2nc(C(=O)NCc3ccc4c(c3)NC(=O)CO4)[nH]c(=O)c2c1 [2/70] | < 0.1 µM | < 0.25 µM
13 | O=C1COc2ccc(CNC(=O)c3nc4scc(-c5ccccc5Cl)c4c(=O)[nH]3)cc2N1 [2/101] | < 0.1 µM | 0.25 to 20 µM
14 | Cn1ncc2c(=O)[nH]c(C(=O)NCc3ccc4c(c3)NC(=O)CO4)nc21 [2/111] | < 0.1 µM | 
15 | O=C1COc2ccc(CNC(=O)c3nc4scc(-c5cccnc5)c4c(=O)[nH]3)cc2N1 [2/115] | < 0.1 µM | 0.25 to 20 µM
16 | Cc1nsc2nc(C(=O)NCc3ccc4c(c3)NC(=O)CO4)[nH]c(=O)c12 [2/136] | 0.1 to 20 µM | 
17 | O=C1COc2ccc(CNC(=O)c3nc4scc(-c5ccc(-c6ccccc6)cc5)c4c(=O)[nH]3)cc2N1 [2/138] | < 0.1 µM | 
18 | O=C(Cc1csc2nc(C(=O)NCc3ccc4c(c3)NC(=O)CO4)[nH]c(=O)c12)NCc1ccc2c(c1)NC(=O)CO2 [2/149] | < 0.1 µM | < 0.25 µM
19 | CNC(=O)Cc1csc2nc(C(=O)NCc3ccc4c(c3)NC(=O)CO4)[nH]c(=O)c12 [2/157] | < 0.1 µM | < 0.25 µM
20 | CCOC(=O)Cc1c([N+](=O)[O-])sc2nc(C(=O)NCc3ccc4c(c3)CN(c3c(N)c(=O)c3=O)CC4)[nH]c(=O)c12 [2/164] | 0.1 to 20 µM | 
21 | Cc1nc2c(=O)[nH]c(C(=O)NCc3ccc4c(c3)NC(=O)CO4)nc2s1 [2/179] | < 0.1 µM | 
22 | Cc1nc2c(=O)[nH]c(C(=O)NCc3ccc4c(c3)CN(c3c(N)c(=O)c3=O)CC4)nc2s1 [2/180] | < 0.1 µM | 

Row | SMILES | IC50 [1] | IC50 (activated MMP-8 enzyme)
23 | O=C1COc2cc(CNC(=O)c3nc4ccccc4c(=O)[nH]3)ccc2N1 [2/205] | 0.1 to 20 µM | 
24 | Cc1sc2nc(C(=O)NCc3ccc4c(c3)NC(=NO)CO4)[nH]c(=O)c2c1C [2/275] | < 0.1 µM | < 0.25 µM
25 | Cc1sc2nc(C(=O)NCc3cc(Br)c4c(c3)NC(=O)CO4)[nH]c(=O)c2c1C [2/281] | < 0.1 µM | 
26 | Cc1csc(-c2csc3nc(C(=O)NCc4ccc5c(c4)NC(=O)CO5)[nH]c(=O)c23)n1 [2/379] | < 0.1 µM | 
27 | Cc1sc2nc(C(=O)NCc3ccc4c(c3)NC(=O)CO4)[nH]c(=O)c2c1C(=O)O [4/1] | 0.1 to 20 µM | 
28 | Cc1c(C(=O)O)sc2nc(C(=O)NCc3ccc4c(c3)NC(=O)CO4)[nH]c(=O)c12 [4/2] | 0.1 to 20 µM | 
29 | O=C1COc2ccc(CNC(=O)c3nc4ccc(CNC(=O)C56C7C8C5C5C6C7C85C(=O)O)cc4c(=O)[nH]3)cc2N1 (stereo not drawn) [4/3] | < 0.1 µM | < 0.25 µM
30 | Cc1c(CCC(=O)O)sc2nc(C(=O)NCc3ccc4c(c3)NC(=O)CO4)[nH]c(=O)c12 [4/8] |  | < 0.25 µM
31 | NC(=O)c1ccc2c(=O)[nH]c(C(=O)NCc3ccc4c(c3)NC(=O)CO4)nc2c1 [13/1] | 0.1 to 20 µM | 
32 | O=C1COc2ccc(CNC(=O)c3nc4ccc(C(=O)Nc5ccccc5)cc4c(=O)[nH]3)cc2N1 [31/1] | 0.1 to 20 µM | 
33 | C[C@@H](Nc1cccc2nc(C(=O)NCc3ccc4c(c3)NC(=O)CO4)[nH]c(=O)c12)c1ccccc1 [36/2] | < 0.1 µM | < 0.25 µM
34 | C[C@@H](Nc1cccc2nc(C(=O)NCc3ccc4c(c3)NC(=O)CO4)[nH]c(=O)c12)C(=O)OC(C)(C)C [36/6] |  | < 0.25 µM
35 | NC(=O)[C@@H]1CCCN1c1cccc2nc(C(=O)NCc3ccc4c(c3)NC(=O)CO4)[nH]c(=O)c12 [36/8] | < 0.1 µM | 
36 | C[C@@H](O)CNc1cccc2nc(C(=O)NCc3ccc4c(c3)NC(=O)CO4)[nH]c(=O)c12 [36/12] | < 0.1 µM | < 0.25 µM
37 | C[C@H](O)CNc1cccc2nc(C(=O)NCc3ccc4c(c3)NC(=O)CO4)[nH]c(=O)c12 [36/13] |  | < 0.25 µM
38 | O=C1COc2ccc(CNC(=O)c3nc4cccc(C(F)(F)F)c4c(=O)[nH]3)cc2N1 [39/1] | < 0.1 µM | 
39 | O=C1COc2ccc(CNC(=O)c3nc4nonc4c(=O)[nH]3)cc2N1 [39/3] | 0.1 to 20 µM | 
40 | O=C1COc2ccc(CNC(=O)c3nc4snnc4c(=O)[nH]3)cc2N1 [39/6] | 0.1 to 20 µM | 
41 | Cc1noc2nc(C(=O)NCc3ccc4c(c3)NC(=O)CO4)[nH]c(=O)c12 [39/12] | 0.1 to 20 µM | 
42 | COc1cccc2c(=O)[nH]c(C(=O)NCc3ccc4c(c3)NC(=O)CO4)nc12 [39/21] | 0.1 to 20 µM | 
43 | O=C1COc2ccc(CNC(=O)c3nc4cc([N+](=O)[O-])ccc4c(=O)[nH]3)cc2N1 [39/22] | < 0.1 µM | < 0.25 µM
44 | O=C1COc2ccc(CNC(=O)c3nc4c(Br)cc(F)cc4c(=O)[nH]3)cc2N1 [39/23] | < 0.1 µM | 

Row | SMILES | IC50 [1] | IC50 (activated MMP-8 enzyme)
45 | Nc1c(N2CCc3ccc(CNC(=O)c4nc5cc(F)c(F)cc5c(=O)[nH]4)cc3C2)c(=O)c1=O [39/24] | < 0.1 µM | 0.25 to 20 µM
46 | O=C1COc2ccc(CNC(=O)c3nc4sccc4c(=O)[nH]3)cc2N1 [Example 1] | < 0.1 µM | 
47 | O=C(NCc1ccc2c(c1)OCO2)c1nc2ccccc2c(=O)[nH]1 [Example 2/5] | < 0.1 µM | 0.25 to 20 µM
48 | Cc1cccc2nc(C(=O)NCc3cccc(CNc4c(N)c(=O)c4=O)c3)[nH]c(=O)c12 [Example 2/15] |  | 0.25 to 20 µM
49 | O=C1COc2ccc(CNC(=O)c3nc4ccc([N+](=O)[O-])cc4c(=O)[nH]3)cc2N1 [Example 2/57] | < 0.1 µM | 0.25 to 20 µM
50 | NC(=O)Cc1csc2nc(C(=O)NCc3ccc4c(c3)NC(=O)CO4)[nH]c(=O)c12 [Example 2/156] |  | < 0.25 µM
51 | O=C1COc2ccc(CNC(=O)c3nc4ccc(C(=O)O)cc4c(=O)[nH]3)cc2N1 [Example 3] | < 0.1 µM | 
52 | Nc1ccc2nc(C(=O)NCc3ccc4c(c3)NC(=O)CO4)[nH]c(=O)c2c1 [Example 5] | < 0.1 µM | < 0.25 µM
53 | O=C1COc2ccc(CNC(=O)c3nc4ccc(C#Cc5ccccc5)cc4c(=O)[nH]3)cc2N1 [Example 8/1] | < 0.1 µM | 
54 | C#Cc1ccc2nc(C(=O)NCc3ccc4c(c3)NC(=O)CO4)[nH]c(=O)c2c1 [Example 8] | < 0.1 µM | < 0.25 µM
55 | O=C1COc2ccc(CNC(=O)c3nc4ccc(-c5nnn[nH]5)cc4c(=O)[nH]3)cc2N1 [Example 11] | < 0.1 µM | 
56 | NCc1ccc2nc(C(=O)NCc3ccc4c(c3)NC(=O)CO4)[nH]c(=O)c2c1 [Example 15] | < 0.1 µM | 
57 | CC(=NO)c1sc2nc(C(=O)NCc3ccc4c(c3)NC(=O)CO4)[nH]c(=O)c2c1C [Example 16] | < 0.1 µM | < 0.25 µM
58 | O=C(O)CCC(=O)NCc1ccc2nc(C(=O)NCc3ccc4c(c3)NC(=O)CO4)[nH]c(=O)c2c1 [Example 17] | < 0.1 µM | < 0.25 µM
59 | Cc1c(CO)sc2nc(C(=O)NCc3ccc4c(c3)NC(=O)CO4)[nH]c(=O)c12 [Example 20a] | < 0.1 µM | 
60 | CCOC(=O)c1sc2nc(C(=O)NCc3ccc4c(c3)NCCO4)[nH]c(=O)c2c1C [Example 20b] | 0.1 to 20 µM | 
61 | Cc1c(CO)sc2nc(C(=O)NCc3ccc4c(c3)NCCO4)[nH]c(=O)c12 [Example 20c] | < 0.1 µM | < 0.25 µM
62 | CC(=O)OCc1sc2nc(C(=O)NCc3ccc4c(c3)N(C(C)=O)CCO4)[nH]c(=O)c2c1C [Example 24] | < 0.1 µM | 
63 | CC(=O)N1CCOc2ccc(CNC(=O)c3nc4sc(CO)c(C)c4c(=O)[nH]3)cc21 [Example 25] | 0.1 to 20 µM | 
64 | Cc1sc2nc(C(=O)NCc3ccc4c(c3)NS(=O)(=O)CO4)[nH]c(=O)c2c1C [Example 38] | 0.1 to 20 µM | 
